Values joined by “and” are separate entries in the source; they are usually repeats but may differ in a detail not shown here. Equal values may be shown once.
Experiments:
E0771 tumors [1] = assay: Nanoparticle penetration (effective permeability) by intravital multiphoton microscopy; assay type: in vivo, mice
Text: Penetration rates are quantified as effective permeability, which is the transvascular mass flux per unit vascular surface area and transvascular concentration difference.
Nanoparticle penetration rates were quantified as transvascular mass flux per unit vascular surface area and transvascular concentration difference, termed as the effective permeability.
Images were taken at ˜60 mW at sample surface. Mosaic images were taken in raster pattern using a motorized stage (H101, Prior Scientific) and customized automation software (LabView, National Instruments). Imaging studies were performed with a 20× magnification, 0.95NA water immersion objective (Olympus XLUMPlanFl, 1-UB965, Optical Analysis).
Concentrations were adjusted with in vitro calibration to result in roughly equal photoluminescence intensity for all three nanoparticle samples under 800 nm multiphoton excitation. […] Images were taken every 3 min at each region of interest for a duration of 1 hr. […] The analysis approach involved 3D vessel tracing to create vessel metrics and a 3D map of voxel intensity versus distance to the nearest vessel over time. Images were also corrected for sample movement over time with 3D image registration. The effective permeability was calculated with
Fluorescence intensities were used as these concentrations. The calculation was made as an average over the entire imaged volume for each tumor.

Mu89 tumors = assay: Collagen I immunostaining of tumor sections; assay type: in vivo, SCID mice; settings: 20 mg/kg/day, two weeks (FIG. 5D)
Method: (§1) Human soft tissue sarcoma (HSTS26T) and human melanoma (Mu89) tumors were grown subcutaneously in the legs and dorsal skin fold chamber of severe combined immunodeficient (SCID) mice (Leunig M, et al. (1992) Cancer Res 52:6553-6560). Human pancreatic adenocarcinoma cells (L3.6PL) were grown orthotopically in the pancreas of SCID mice. L3.6PL tumors were induced with a sub-capsular injection of one million cells in the tail of the pancreas. Tumor sizes were monitored in spontaneous FVB/N-Tg (MMTV-PyVT) 634MU1/J mice and tumors selected for treatment when they reached a size of 4 to 6 mm in diameter (Guy C T et al. (1992) Mol Cell Biol 12:954-961).
(§2) Cozaar (losartan potassium) tablets were ground using a mortar and pestle. The powder was then dissolved in water to obtain a concentration of 2.5 mg/ml. The solution was then filtered and stored in a sterile container.
(§3) Frozen sections were cut into 10 μm sections for immunohistochemistry and imaging. Collagen I was detected using the LF-67 antibody (1:100 dilution) with a previously described protocol (Znati C A, et al. (2003) Clin Cancer Res 9:5508-5513). TSP-1 was detected with a goat anti-human antibody (1:50 dilution), which cross-reacts with mice (sc-12312, Santa Cruz Biotechnology Inc., Santa Cruz, Calif.). For collagen and TSP-1 analysis, images at 20× magnification were taken randomly from each slide. The collagen and TSP-1 content was determined by measuring the number of pixels above a threshold value that was set based on the average intensity value of pixels from all slides under analysis. The background-signal intensity for both collagen I and thrombospondin-1 immunostaining was low and uniform.

[2] = system: L3.6 pl orthotopic pancreatic tumors; assay: Collagen I immunostaining of tumor sections; assay type: in vivo, SCID mice; settings: 20 mg/kg/day, two weeks (FIG. 5B)
Method: as §1, §2, §3

HSTS26T tumors = assay: Collagen I immunostaining of tumor sections; assay type: in vivo, SCID mice
Method: as §1, §2, §3

E0771 tumors [3] = assay: Solid stress (tumor opening technique); parameters: species or system mice; settings: mouse, in vivo
Method: Solid stress was assessed using an ex vivo technique involving the measurement of the extent of tumor tissue relaxation (tumor opening relative to tumor diameter) following a stress-releasing incision, with larger openings indicating higher stress.
When the tumors reached a size of −1 cm in diameter, the mice were anesthetized. Subsequently, each tumor was excised, washed with Hanks' Balanced Salt Solution (HBSS) and its three dimensions were measured. Each tumor was cut along its longest axis, to a depth of 80% of its shortest dimension, using a scalpel. The tumors were allowed to relax for 10 minutes in HBSS to diminish any transient, poro-elastic responses. Afterwards, the opening resulting from the cut was measured at the middle of the cut at the surface of the tumor. Solid stress is proportional to the size of the opening relative to the size of the dimension perpendicular to the cut.

[4] = system: FVB MMTV PyVT spontaneous mammary carcinoma; assay: Collagen I immunostaining of tumor sections; assay type: in vivo, mice; settings: 20 mg/kg/day, two weeks (FIG. 5B)
Method: as §1
Cozaar (losartan potassium) tablets were ground using a mortar and pestle. The powder was then dissolved in water to obtain a concentration of 2.5 mg/ml. […]
as §3, with “For collagen and TSP-1 analysis, images at 20× magnification were taken randomly from each slide.” left out, “The background-signal intensity for both collagen I and thrombospondin-1 immunostaining was low and uniform.” left out

Pan-02 pancreatic tumors = assay: Solid stress (tumor opening technique); parameters: species or system C57BL/6 mouse; settings: mouse, in vivo
Text: FIG. 25 is a bar graph showing that angiotensin inhibitors decrease stress in multiple tumor models. Solid stress levels in tumors after angiotensin inhibition using losartan are shown. […] Animal numbers n=10-11 (4T1 stress), n=4-8 (Pan-02 stress).
The mechanism responsible for the increase in tumor vessel perfusion by losartan was investigated. Desmoplasia, high stromal cell and matrix density, is a major contributor to the solid stress accumulation that compresses vessels (Stylianopoulos T, et al., Growth-induced mechanical stress in murine and human tumors: causes, consequences and remedies. under review. 2012). […] Moreover, losartan decreased collagen I concentration, measured based on staining intensity, in E0771 and AK4.4 tumors (FIGS. 24B-24C). […] Next, solid stress in these tumors was measured using recently established technique described in Stylianopoulos T, et al., Growth-induced mechanical stress in murine and human tumors: causes, consequences and remedies. under review. […]
Solid stress: Solid stress was measured using the tumor opening technique as described previously (Stylianopoulos T, et al., Growth-induced mechanical stress in murine and human tumors: causes, consequences and remedies. under review. 2012). […] Subsequently, each tumor was excised, washed with Hanks' Balanced Salt Solution (HBSS) and its three dimensions were measured. […]

[5] = Losartan bioanalysis: plasma and tumor levels (HPLC/FLU); settings: male, FVB, mouse, subcutaneous
[6] = system: L3.6PL orthotopic pancreatic tumors; assay: DOXIL treatment and tumor growth delay; assay type: in vivo, SCID mice
Text: One week after the DOXIL injection, the tumors were resected and measured.

CCCCc1nc(Cl)c(CO)n1Cc1ccc(-c2ccccc2-c2nn[nH]n2)cc1 [losartan]
effective permeability (E0771 tumors [1]; 12 nm nanoparticles): improved | effective permeability (E0771 tumors [1]; 60 nm nanoparticles): improved | effective permeability (E0771 tumors [1]; 125 nm nanoparticles): improved | reduction in collagen I immunostaining (Mu89 tumors): 20% | reduction in collagen I immunostaining [2]: 50% | reduction in collagen I immunostaining (HSTS26T tumors; 20 mg/kg/day, dose response (FIG. 3), vs saline): 42% | reduction in collagen I immunostaining (HSTS26T tumors; 20 mg/kg/day, two weeks (FIG. 5D)): 44% | reduction in collagen I immunostaining (HSTS26T tumors; 60 mg/kg/day, dose response (FIG. 3), vs saline): 63% and 65% | solid stress (E0771 tumors [3]): reduces solid stress | reduction in collagen I immunostaining [4]: 47% | solid stress (Pan-02 pancreatic tumors): reduces solid stress | concentration at 2 h ([5]; plasma, 40 mg/kg, Plasma 2 hr level, Day 14, Group 3: losartan subcutaneous injection without pump 40 mg/kg daily): 423 ng/mL | concentration at 2 h ([5]; plasma, 40 mg/kg, Plasma 2 hr level, Day 19, Group 3: losartan subcutaneous injection without pump 40 mg/kg daily): 152 ng/mL | concentration at 6 h ([5]; plasma, 40 mg/kg, Plasma 6 hr level, Day 14, Group 3: losartan subcutaneous injection without pump 40 mg/kg daily): 11 ng/mL | concentration at 6 h ([5]; plasma, 40 mg/kg, Plasma 6 hr level, Day 19, Group 3: losartan subcutaneous injection without pump 40 mg/kg daily): 28 ng/mL | concentration at 2 h ([5]; plasma, 40 mg/kg/day, Plasma 2 hr level, Day 14, Group 2: losartan via subcutaneous pump 40 mg/kg/day): 227 ng/mL | concentration at 2 h ([5]; plasma, 40 mg/kg/day, Plasma 2 hr level, Day 19, Group 2: losartan via subcutaneous pump 40 mg/kg/day): 370 ng/mL | concentration at 6 h ([5]; plasma, 40 mg/kg/day, Plasma 6 hr level, Day 14, Group 2: losartan via subcutaneous pump 40 mg/kg/day): 304 ng/mL | concentration at 6 h ([5]; plasma, 40 mg/kg/day, Plasma 6 hr level, Day 19, Group 2: losartan via subcutaneous pump 40 mg/kg/day): 376 ng/mL | concentration at 2 h ([5]; tumor, 40 mg/kg, Tumor 2 hr level, Day 14, Group 3: losartan subcutaneous injection without pump 40 mg/kg daily): 163 ng/mL | concentration at 2 h ([5]; tumor, 40 mg/kg, Tumor 2 hr level, Day 19, Group 3: losartan subcutaneous injection without pump 40 mg/kg daily): 41 ng/mL | concentration at 6 h ([5]; tumor, 40 mg/kg, Tumor 6 hr level, Day 14, Group 3: losartan subcutaneous injection without pump 40 mg/kg daily): 21 ng/mL | concentration at 6 h ([5]; tumor, 40 mg/kg, Tumor 6 hr level, Day 19, Group 3: losartan subcutaneous injection without pump 40 mg/kg daily): 54 ng/mL | concentration at 2 h ([5]; tumor, 40 mg/kg/day, Tumor 2 hr level, Day 14, Group 2: losartan via subcutaneous pump 40 mg/kg/day): 50 ng/mL | concentration at 2 h ([5]; tumor, 40 mg/kg/day, Tumor 2 hr level, Day 19, Group 2: losartan via subcutaneous pump 40 mg/kg/day): 56.1 ng/mL | concentration at 6 h ([5]; tumor, 40 mg/kg/day, Tumor 6 hr level, Day 14, Group 2: losartan via subcutaneous pump 40 mg/kg/day): 57 ng/mL | concentration at 6 h ([5]; tumor, 40 mg/kg/day, Tumor 6 hr level, Day 19, Group 2: losartan via subcutaneous pump 40 mg/kg/day): 66 ng/mL | mean tumor weight ([6]; agent alone (losartan 20 mg/kg/day or DOXIL 4 mg/kg i.v.), after 7 days): did not affect | tumor size vs DOXIL alone ([6]; losartan 20 mg/kg/day combined with DOXIL 4 mg/kg i.v.): significantly smaller | growth of pancreatic tumors or weight of treated mice ([6]; losartan alone): did not affect | reduction of tumor sizes compared to DOXIL treatment alone ([6]; losartan combined with DOXIL): 50%
